In brackets after ≈: the same amount, converted by molar mass. Where only a bound is given, the exact number is not on record here.

Nine compounds from ChEMBL document CHEMBL1131160, “5-Substituted pyrimidines with a 1,5-anhydro-2, 3-dideoxy-D-arabino-hexitol moiety at N-1: synthesis, antiviral activity, conformational analysis, and interaction with viral thymidine kinase” (1998) can be followed below.

Test [1] concerns Human cytomegalovirus (AD-169). Description: Compound was evaluated for the minimum inhibition concentration required to reduce virus-induced cytopathogenicity by 50%, determined against Cytomegalovirus (AD-169) in HEL cells. On the technique in general: Damage to the host cells serves as the signal in cytopathic effect assays.
Test [2] deals with E6SM. Put plainly: Compound was evaluated for the minimum inhibition concentration required to reduce virus-induced cytopathogenicity by 50%, determined against HSV-2 virus as means of G, 196, and Lyons strains. The class given is functional. The settings on record: Homo sapiens.
For test [3], the system named is E6SM. Put plainly: Compound was evaluated for the minimum inhibition concentration required to reduce virus-induced cytopathogenicity by 50%, determined against HSV-1 (TK-B2006) virus. The class given is functional. The following applies: Homo sapiens.
Test [4] deals with E6SM. Description: Compound was evaluated for the minimum inhibition concentration required to reduce virus-induced cytopathogenicity by 50%, determined against KOS,F,McIntyre strains of HSV-1 virus. The following applies: Homo sapiens. Type of test: functional.
Test [5] deals with E6SM. Put plainly: Compound was evaluated for the minimum cytotoxic concentration required to cause a microscopically detectable alteration of normal cell morphology. The following applies: Homo sapiens. The class given is functional.

As to `C#Cc1cn(C2COC(CO)C(O)C2)c(=O)[nH]c1=O` (configuration not stated), the MIC is over 50 µg/mL in test [1], over 400 µg/mL in the test on E6SM [2], over 400 µg/mL against E6SM [3] and 48 µg/mL (≈ 180 µM) with E6SM [4].

Regarding `O=c1[nH]c(=O)n(C2COC(CO)C(O)C2)cc1Cl` (configuration not stated), the MIC in test [1] was over 50 µg/mL; against E6SM [2], over 400 µg/mL; with E6SM [3] it was over 400 µg/mL; in the test on E6SM [4] it was over 400 µg/mL. This compound displayed an MCC with E6SM [5] of over 400 µg/mL.

`O=c1[nH]c(=O)n(C2COC(CO)C(O)C2)cc1C(F)(F)F` (configuration not stated): the MIC in test [1] was over 50 µg/mL; in the test on E6SM [2], 0.38 µg/mL (≈ 1.22 µM); in the test with E6SM [3], 9.8 µg/mL (≈ 31.6 µM); in the test on E6SM [4] it was 0.025 µg/mL (≈ 0.0806 µM). In the test on E6SM [5], this compound came in with an MCC of over 400 µg/mL.

Take `CC#Cc1cn(C2COC(CO)C(O)C2)c(=O)[nH]c1=O` (configuration not stated): the MIC in test [1] was over 50 µg/mL; in the test on E6SM [2], 16 µg/mL (≈ 57.1 µM); against E6SM [3], 48 µg/mL (≈ 171 µM); against E6SM [4] it was 0.38 µg/mL (≈ 1.36 µM). The compound also displayed an MCC with E6SM [5] of over 400 µg/mL.

Turning to `C=Cc1cn(C2COC(CO)C(O)C2)c(=O)[nH]c1=O` (configuration not stated), the MIC is over 50 µg/mL in test [1], 9.6 µg/mL (≈ 35.8 µM) against E6SM [2], 240 µg/mL (≈ 895 µM) in the test on E6SM [3] and 0.075 µg/mL (≈ 0.28 µM) against E6SM [4]. In the test on E6SM [5], this compound had an MCC of over 400 µg/mL.

For `O=c1[nH]c(=O)n(C2COC(CO)C(O)C2)cc1-c1cccs1` (configuration not stated), the MIC is over 50 µg/mL in test [1], 240 µg/mL (≈ 740 µM) in the test with E6SM [2], 240 µg/mL (≈ 740 µM) in the test on E6SM [3] and 240 µg/mL (≈ 740 µM) in the test with E6SM [4]. Moreover, in the test with E6SM [5], the MCC was over 400 µg/mL.

As to `O=c1[nH]c(=O)n(C2COC(CO)C(O)C2)cc1I` (configuration not stated), the MIC in test [1] is over 40 µg/mL; in the test on E6SM [2], 0.5 µg/mL (≈ 1.36 µM); in the test with E6SM [3], over 400 µg/mL; in the test on E6SM [4], 0.025 µg/mL (≈ 0.0679 µM). This compound also gave an MCC with E6SM [5] of over 400 µg/mL.

As for `Nc1nc2c(ncn2COCCO)c(=O)[nH]1` [ACYCLOVIR], the values for the MIC in the test on E6SM [2], in the test on E6SM [3] and against E6SM [4] were 0.38 µg/mL (≈ 1.69 µM), 1.92 µg/mL (≈ 8.53 µM) and 0.075 µg/mL (≈ 0.333 µM), respectively. The MCC in the test on E6SM [5] is over 200 µg/mL.

Regarding `O=c1[nH]c(=O)n([C@H]2C[C@H](O)[C@@H](CO)O2)cc1/C=C/Br` [BRIVUDINE], the results for the MIC in the test on E6SM [2], against E6SM [3] and against E6SM [4] were over 80 µg/mL, 3.2 µg/mL (≈ 9.61 µM) and 0.015 µg/mL (≈ 0.045 µM), respectively. In the test on E6SM [5], this compound yielded an MCC of over 200 µg/mL.
